How the values were obtained:
KRAS G12D = KRAS G12D (Homo sapiens, UniProt P01116+P62937, G12D); test: Disruption of BRAF RBD interaction with Ras (FRET / MOA assay, with Cyclophilin A); type: biochemical; conditions: read-out: KRAS G12D FRET data, IC50
How it was run: (§1)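 TR-FRET readout: a drop in ratio relative to DMSO wells marks disruption of the K-Ras:BRAF RBD complex via compound-induced K-Ras–Cyclophilin A ternary complex. Dosing used ten 3-fold steps from 30 μM final, 3 h at 25 °C, then Eu-anti-His 10 nM plus APC-anti-GST 50 nM for another 1.5 h. Values are IC50s.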

KRAS G12C = KRAS G12C (Homo sapiens, UniProt P01116+P62937, G12C); test: as above; type: biochemical; conditions: read-out: KRAS G12C FRET data, IC50
KRAS G12C, sequence (P01116 1-169 isoform P01116-2 G12C): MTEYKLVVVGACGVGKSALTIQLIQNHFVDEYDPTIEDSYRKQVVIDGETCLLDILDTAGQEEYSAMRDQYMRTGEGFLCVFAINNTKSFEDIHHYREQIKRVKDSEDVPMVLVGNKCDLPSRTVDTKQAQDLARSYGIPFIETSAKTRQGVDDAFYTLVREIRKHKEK
KRAS G12C, sequence (P62937 whole entry): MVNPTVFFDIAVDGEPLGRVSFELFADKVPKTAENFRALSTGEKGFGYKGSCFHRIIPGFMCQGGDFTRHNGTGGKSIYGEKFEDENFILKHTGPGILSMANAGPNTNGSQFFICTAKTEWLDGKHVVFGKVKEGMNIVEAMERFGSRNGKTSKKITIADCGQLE
How it was run: as §1

KRAS G13D = KRAS G13D (Homo sapiens, UniProt P01116+P62937, G13D); test: as above; type: biochemical; conditions: KRAS G13D; read-out: KRAS G13D FRET data IC50
KRAS G13D, sequence (P01116 1-169 isoform P01116-2 G13D limits assumed): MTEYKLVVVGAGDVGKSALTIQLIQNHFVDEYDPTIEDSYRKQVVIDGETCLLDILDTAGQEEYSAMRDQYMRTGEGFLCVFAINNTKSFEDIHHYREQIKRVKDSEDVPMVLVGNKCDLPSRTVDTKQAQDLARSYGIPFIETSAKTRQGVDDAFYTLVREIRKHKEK
KRAS G13D, sequence (P62937 whole entry): as the sequence (P62937 whole entry) above
How it was run: as §1

KRAS G12V = KRAS G12V (Homo sapiens, UniProt P01116+P62937, G12V); test: as above; type: biochemical; conditions: KRAS G12V; read-out: KRAS G12V FRET data IC50
KRAS G12V, sequence (P01116 1-169 isoform P01116-2 G12V limits assumed): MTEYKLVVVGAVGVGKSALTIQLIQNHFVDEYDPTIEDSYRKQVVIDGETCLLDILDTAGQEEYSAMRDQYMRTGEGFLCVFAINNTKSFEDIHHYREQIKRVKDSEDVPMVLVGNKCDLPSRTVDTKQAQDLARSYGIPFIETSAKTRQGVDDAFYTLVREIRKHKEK
KRAS G12V, sequence (P62937 whole entry): as the sequence (P62937 whole entry) above
How it was run: as §1

KRAS G13C = KRAS G13C (Homo sapiens, UniProt P01116+P62937, G13C); test: as above; type: biochemical; conditions: read-out: KRAS G13C FRET data, IC50
KRAS G13C, sequence (P01116 1-169 isoform P01116-2 G13C): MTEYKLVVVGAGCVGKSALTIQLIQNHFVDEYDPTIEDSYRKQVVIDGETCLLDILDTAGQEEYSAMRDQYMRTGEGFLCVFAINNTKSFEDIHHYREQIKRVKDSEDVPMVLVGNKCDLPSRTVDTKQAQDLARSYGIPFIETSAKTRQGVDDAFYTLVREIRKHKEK
KRAS G13C, sequence (P62937 whole entry): as the sequence (P62937 whole entry) above
How it was run: as §1

NRAS G12C = NRAS G12C (Homo sapiens, UniProt P01111+P62937, G12C); test: as above; type: biochemical; conditions: NRAS G12C; read-out: NRAS G12C FRET data IC50
NRAS G12C, sequence (P01111 whole entry G12C): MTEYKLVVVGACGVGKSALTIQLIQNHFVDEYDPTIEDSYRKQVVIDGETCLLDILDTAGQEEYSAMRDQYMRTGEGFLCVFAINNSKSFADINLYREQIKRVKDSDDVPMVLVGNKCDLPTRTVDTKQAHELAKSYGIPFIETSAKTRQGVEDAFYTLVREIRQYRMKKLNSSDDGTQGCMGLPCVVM
NRAS G12C, sequence (P62937 whole entry): as the sequence (P62937 whole entry) above

KRAS G12S = KRAS G12S (Homo sapiens, UniProt P01116+P62937, G12S); test: as above; type: biochemical; conditions: read-out: KRAS G12S FRET data, IC50
KRAS G12S, sequence (P01116 1-169 isoform P01116-2 G12S limits assumed): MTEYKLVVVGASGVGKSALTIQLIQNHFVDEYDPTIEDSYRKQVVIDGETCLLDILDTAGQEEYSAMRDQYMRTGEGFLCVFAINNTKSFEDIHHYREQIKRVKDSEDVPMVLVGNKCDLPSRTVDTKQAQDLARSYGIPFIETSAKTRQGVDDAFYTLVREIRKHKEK
KRAS G12S, sequence (P62937 whole entry): as the sequence (P62937 whole entry) above
How it was run: as §1

KRAS WT = KRAS WT (Homo sapiens, UniProt P01116+P62937); test: as above; type: biochemical; conditions: KRAS WT; read-out: KRAS WT FRET data IC50
KRAS WT, sequence (P01116 1-169 isoform P01116-2 limits assumed): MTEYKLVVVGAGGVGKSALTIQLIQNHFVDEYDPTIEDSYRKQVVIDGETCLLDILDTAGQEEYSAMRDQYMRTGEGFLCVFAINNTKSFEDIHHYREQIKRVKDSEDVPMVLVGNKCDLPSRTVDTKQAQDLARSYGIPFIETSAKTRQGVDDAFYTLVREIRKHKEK
KRAS WT, sequence (P62937 whole entry): as the sequence (P62937 whole entry) above
How it was run: as §1

Capan-1 (K-Ras G12V) = test: CellTiter-Glo cell viability assay, 5-day treatment; type: cell-based; conditions: Homo sapiens, CAPAN-1, 120 h, 5-day treatment; read-out: Capan-1 Cell Viability assay data (K-Ras G12V, IC50)
How it was run: (§2)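 Luminescence read-out after 5 days of compound exposure, with plates first brought to room temperature for roughly 30 minutes. Values are percent of averaged DMSO wells, fitted by four-parameter logistic regression.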

NCI-H358 (K-Ras G12C) = test: as above; type: cell-based; conditions: Homo sapiens, NCI-H358, 120 h, 5-day treatment; read-out: H358 Cell Viability assay data (K-Ras G12C, IC50)
How it was run: as §2

NRAS Q61R = NRAS Q61R (Homo sapiens, UniProt P01111+P62937, Q61R); test: Disruption of BRAF RBD interaction with Ras (FRET / MOA assay, with Cyclophilin A); type: biochemical; conditions: NRAS Q61R; read-out: NRAS Q61R FRET data IC50
NRAS Q61R, sequence (P01111 whole entry Q61R): as the sequence (P01111 whole entry G12C) above, with C12G, Q61R counted along it
NRAS Q61R, sequence (P62937 whole entry): as the sequence (P62937 whole entry) above
How it was run: (§3)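 TR-FRET in 25 mM HEPES pH 7.3, 100 mM NaCl, 5 mM MgCl2, 0.1% BSA: 25 μM Cyclophilin A, 12.5 nM His6-Ras-GMPPNP, 50 nM GST-BRAF RBD with compound (10-point 3-fold series from 30 μM), 3 h at 25° C. Anti-His Eu/anti-GST APC added, 1.5 h more; IC50 from decreased FRET ratio versus DMSO.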

KRAS Q61H = KRAS Q61H (Homo sapiens, UniProt P01116+P62937, Q61H); test: as above; type: biochemical; conditions: KRAS Q61H; read-out: KRAS Q61H FRET data IC50
KRAS Q61H, sequence (P01116 1-169 isoform P01116-2 Q61H limits assumed): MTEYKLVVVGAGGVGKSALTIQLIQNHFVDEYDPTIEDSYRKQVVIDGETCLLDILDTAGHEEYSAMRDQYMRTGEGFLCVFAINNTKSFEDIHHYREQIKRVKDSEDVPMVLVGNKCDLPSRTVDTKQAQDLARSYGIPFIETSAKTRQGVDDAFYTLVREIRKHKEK
KRAS Q61H, sequence (P62937 whole entry): as the sequence (P62937 whole entry) above
How it was run: as §3

NRAS Q61K = NRAS Q61K (Homo sapiens, UniProt P01111+P62937, Q61K); test: as above; type: biochemical; conditions: NRAS Q61K; read-out: NRAS Q61K FRET data IC50
NRAS Q61K, sequence (P01111 whole entry Q61K): as the sequence (P01111 whole entry G12C) above, with C12G, Q61K counted along it
NRAS Q61K, sequence (P62937 whole entry): as the sequence (P62937 whole entry) above
How it was run: as §3

NRAS WT = NRAS WT (Homo sapiens, UniProt P01111+P62937); test: as above; type: biochemical; conditions: NRAS WT; read-out: NRAS WT FRET data IC50
NRAS WT, sequence (P01111 whole entry): as the sequence (P01111 whole entry G12C) above, with C12G counted along it
NRAS WT, sequence (P62937 whole entry): as the sequence (P62937 whole entry) above
How it was run: as §3

KRAS G12D, sequence (P01116 1-169 isoform P01116-2 G12D limits assumed): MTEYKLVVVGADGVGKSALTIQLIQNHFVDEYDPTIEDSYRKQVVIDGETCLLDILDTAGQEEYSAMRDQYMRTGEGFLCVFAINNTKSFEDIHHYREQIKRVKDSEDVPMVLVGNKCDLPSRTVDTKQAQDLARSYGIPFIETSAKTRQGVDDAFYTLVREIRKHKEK
KRAS G12D, sequence (P62937 whole entry): as the sequence (P62937 whole entry) above

Compound	IC50 (KRAS G12D)	IC50 (KRAS G12C)	IC50 (KRAS G13D)	IC50 (KRAS G12V)	IC50 (KRAS G13C)	IC50 (NRAS G12C)	IC50 (KRAS G12S)	IC50 (KRAS WT)	IC50 (NCI-H358 (K-Ras G12C))	IC50 (NRAS Q61R)	IC50 (KRAS Q61H)	IC50 (NRAS Q61K)	IC50 (NRAS WT)	IC50 (Capan-1 (K-Ras G12V))
CCn1c(-c2cccnc2[C@H](C)OC)c2c3cc(ccc31)-c1csc(n1)C[C@H](NC(=O)[C@H](C(C)C)N(C)C(=O)N1CC(C3CN(C)C3)C1)C(=O)N1CCC[C@H](N1)C(=O)OCC(C)(C)C2 (atropisomer, axis not shown) [Example A608]	0.1 to 1 µM	0.01 to 0.1 µM	0.1 to 1 µM	0.1 to 1 µM	0.1 to 1 µM	0.01 to 0.1 µM	0.1 to 1 µM	0.1 to 1 µM	0.1 to 1 µM	0.1 to 1 µM	0.01 to 0.1 µM	0.01 to 0.1 µM	0.1 to 1 µM	0.01 to 0.1 µM
CCn1c(-c2cccnc2[C@H](C)OC)c2c3cc(ccc31)-c1csc(n1)C[C@H](NC(=O)[C@H](C(C)C)N(C)C(=O)N1CC(C(C)(C)OC)C1)C(=O)N1CCC[C@H](N1)C(=O)OCC(C)(C)C2 (atropisomer, axis not shown) [Example A614]	0.1 to 1 µM	0.01 to 0.1 µM	0.1 to 1 µM	0.1 to 1 µM	0.1 to 1 µM	0.01 to 0.1 µM	0.1 to 1 µM	0.1 to 1 µM	0.01 to 0.1 µM	0.1 to 1 µM	0.01 to 0.1 µM	0.01 to 0.1 µM	0.1 to 1 µM	0.01 to 0.1 µM
CCn1c(-c2cccnc2[C@H](C)OC)c2c3cc(ccc31)-c1csc(n1)C[C@H](NC(=O)[C@H](C(C)C)N(C)C(=O)N(C)C)C(=O)N1CCC[C@H](N1)C(=O)OCC(C)(C)C2 (racemic) [Example A136]	0.1 to 1 µM	0.01 to 0.1 µM	0.1 to 1 µM	0.1 to 1 µM	0.1 to 1 µM	0.01 to 0.1 µM	0.1 to 1 µM	0.1 to 1 µM	< 0.01 µM	0.01 to 0.1 µM	0.01 to 0.1 µM	0.01 to 0.1 µM	0.01 to 0.1 µM	0.01 to 0.1 µM
CCn1c(-c2cccnc2[C@H](C)OC)c2c3cc(ccc31)-c1csc(n1)C[C@H](NC(=O)[C@H](C(C)C)N(C)C(=O)N1CC(N(C)C)C1)C(=O)N1CCC[C@H](N1)C(=O)OCC(C)(C)C2 (racemic) [Example A170]	1 to 10 µM	0.1 to 1 µM	0.1 to 1 µM	0.1 to 1 µM	0.1 to 1 µM	0.1 to 1 µM	0.1 to 1 µM	0.1 to 1 µM	0.01 to 0.1 µM	0.1 to 1 µM	0.1 to 1 µM	0.01 to 0.1 µM	0.1 to 1 µM	0.01 to 0.1 µM
CCn1c(-c2cccnc2[C@H](C)OC)c2c3cc(ccc31)-c1cc(O)cc(c1)C[C@H](NC(=O)[C@H](C(C)C)N(C)C(=O)[C@H]1C[C@@H]1O)C(=O)N1CCC[C@H](N1)C(=O)OCC(C)(C)C2 (single isomer, unassigned) [Example A346]	0.1 to 1 µM	0.01 to 0.1 µM	0.1 to 1 µM	0.1 to 1 µM	0.01 to 0.1 µM	0.01 to 0.1 µM	0.1 to 1 µM	0.01 to 0.1 µM	0.1 to 1 µM	0.1 to 1 µM	0.01 to 0.1 µM	0.1 to 1 µM	0.01 to 0.1 µM	0.1 to 1 µM

Continued, in another order:

IC50 (KRAS G12D)	IC50 (KRAS G12C)	IC50 (KRAS G13D)	IC50 (KRAS G12V)	IC50 (KRAS G13C)	IC50 (NRAS G12C)	IC50 (KRAS G12S)	IC50 (KRAS WT)	IC50 (NCI-H358 (K-Ras G12C))	IC50 (NRAS Q61R)	IC50 (KRAS Q61H)	IC50 (NRAS Q61K)	IC50 (NRAS WT)	Compound	IC50 (Capan-1 (K-Ras G12V))
0.01 to 0.1 µM	< 0.01 µM	0.01 to 0.1 µM	0.01 to 0.1 µM	< 0.01 µM	< 0.01 µM	< 0.01 µM	< 0.01 µM	< 0.01 µM	< 0.01 µM	< 0.01 µM	0.01 to 0.1 µM	< 0.01 µM	CCn1c(-c2cc(N3CCN(C)CC3)cnc2[C@H](C)OC)c2c3cc(ccc31)-c1cc(O)cc(c1)C[C@H](NC(=O)[C@H](C(C)C)N(C)C(=O)[C@@H]1OCC[C@@H]1c1ccccc1)C(=O)N1CCC[C@H](N1)C(=O)OCC(C)(C)C2 (atropisomer, axis not shown) [Example A594]	< 0.01 µM
0.1 to 1 µM	0.01 to 0.1 µM	0.1 to 1 µM	0.1 to 1 µM	0.1 to 1 µM	0.01 to 0.1 µM	0.1 to 1 µM	0.1 to 1 µM	0.01 to 0.1 µM	0.1 to 1 µM	0.01 to 0.1 µM	0.01 to 0.1 µM	0.1 to 1 µM	CCn1c(-c2cccnc2[C@H](C)OC)c2c3cc(ccc31)-c1csc(n1)C[C@H](NC(=O)[C@H](C(C)C)N(C)C(=O)N1CCN(C(=O)[C@H]3CCCN3C)CC1)C(=O)N1CCC[C@H](N1)C(=O)OCC(C)(C)C2 (atropisomer, axis not shown) [Example A595]	0.1 to 1 µM
0.1 to 1 µM	0.01 to 0.1 µM	0.1 to 1 µM	0.1 to 1 µM	0.1 to 1 µM	0.01 to 0.1 µM	0.1 to 1 µM	0.1 to 1 µM	0.01 to 0.1 µM	0.01 to 0.1 µM	0.01 to 0.1 µM	0.01 to 0.1 µM	0.1 to 1 µM	CCn1c(-c2cccnc2[C@H](C)OC)c2c3cc(ccc31)-c1csc(n1)C[C@H](NC(=O)[C@H](C(C)C)N(C)C(=O)N1CCC13CCOCC3)C(=O)N1CCC[C@H](N1)C(=O)OCC(C)(C)C2 (atropisomer, axis not shown) [Example A601]	0.01 to 0.1 µM
0.01 to 0.1 µM	0.01 to 0.1 µM	0.01 to 0.1 µM	0.01 to 0.1 µM	0.01 to 0.1 µM	0.01 to 0.1 µM	0.01 to 0.1 µM	0.01 to 0.1 µM	0.01 to 0.1 µM	0.1 to 1 µM	< 0.01 µM	0.1 to 1 µM	0.01 to 0.1 µM	CCn1c(-c2cccnc2[C@H](C)OC)c2c3cc(ccc31)-c1cc(O)cc(c1)C[C@H](NC(=O)[C@H](C(C)C)N(C)C(=O)[C@@H]1CCN[C@@H]1c1ccccc1)C(=O)N1CCC[C@H](N1)C(=O)OCC(C)(C)C2 (atropisomer, axis not shown) [Example A605]	0.1 to 1 µM
0.1 to 1 µM	0.01 to 0.1 µM	0.1 to 1 µM	0.1 to 1 µM	0.1 to 1 µM	0.01 to 0.1 µM	0.01 to 0.1 µM	0.01 to 0.1 µM	< 0.01 µM	0.01 to 0.1 µM	0.01 to 0.1 µM	0.01 to 0.1 µM	0.01 to 0.1 µM	CCn1c(-c2cccnc2[C@H](C)OC)c2c3cc(ccc31)-c1csc(n1)C[C@H](NC(=O)[C@H](C(C)C)N(C)C(=O)N1CCN(C(=O)C3COC3)CC1)C(=O)N1CCC[C@H](N1)C(=O)OCC(C)(C)C2 (atropisomer, axis not shown) [Example A606]	0.01 to 0.1 µM
0.01 to 0.1 µM	0.01 to 0.1 µM	0.01 to 0.1 µM	0.01 to 0.1 µM	0.01 to 0.1 µM	0.01 to 0.1 µM	0.01 to 0.1 µM	0.01 to 0.1 µM	< 0.01 µM	0.01 to 0.1 µM	< 0.01 µM	0.01 to 0.1 µM	0.01 to 0.1 µM	CCn1c(-c2cccnc2[C@H](C)OC)c2c3cc(ccc31)-c1cc(O)cc(c1)C[C@H](NC(=O)[C@H](C(C)C)N(C)C(=O)C1(C#N)CC1)C(=O)N1CCC[C@H](N1)C(=O)OCC(C)(C)C2 (racemic) [Example A159]	0.01 to 0.1 µM

Reference: patent US20230233569A1 (Revolution Medicines, Inc., priority 2020, published 2023)
